Experimental data from patent US20140186875A1, “NOVEL OPTICAL LABELING MOLECULES FOR PROTEOMICS AND OTHER BIOLOGICAL ANALYSIS” (Montana State University, priority 2007, published 2014).

What was measured:
[1] = Optical properties of the dyes (absorbance, emission, extinction coefficient, quantum efficiency); assay type: physicochemical
[2] = test system: Glutathione S Transferase Omega1—GSTO1; assay: Differential 2D gel analysis of developing rat brain proteins raised on high and low docosahexaenoic acid; assay type: in vivo; conditions: DHA enriched diet compared with adequate control diet, cytosolic brain fraction
Protocol: Each forebrain was ground using a pestle and mortar, previously brought to liquid nitrogen temperature in a sealed plastic bag with positive dry nitrogen gas pressure. After grinding of the tissue at liquid nitrogen temperature, […] sample of cell lysis buffer containing 20 mM Bicine, 5 mM magnesium acetate, 0.5% Nonidet P-40 and Roche Complete protease inhibitor—mini EDTA free, were added to about a 100 mg sample and mixed well in a 2 ml microcentrifuge tube. Sample fractionation—Crude nuclear fraction (P1) was removed by sedimentation at 1000×g for 10 min at room temp. The supernatant (S1) was removed and was ultra-centrifuged at 100,000×g at 4° C. for an hour in 2 ml polycarbonate tubes in a swinging bucket rotor. The cytosolic fraction S2 was separated. […] Protein concentrations of the cytosolic and membrane organelle fractions were assessed, using the Bio-Rad RCDC assay. […]
1st dimension separation—the sample was spread in a lane of a Bio-Rad Protean isoelectric focusing (IEF) cell tray, an 18 cm 3-10 non-linear IPG strip, or 3-7, or 6-11 IEF strip was put on top of it, covered with mineral oil and allowed to passively re-hydrate for one hr. […] The IPG strips were then transferred to an Ettan IPGphor and covered with mineral oil for monitored iso-electric focusing as follows, 3:30 hrs 300V, 2:30 hrs 1000V, 2:30 hrs 2500V and 7:30 hrs 3500V. […]

| Compound | QE (QY) [1] [%] | ε [1] | λ(abs) [1] [nm] | λ(ems) [1] [nm] | down-regulation of spot 2 (GSTO1) [2] | up-regulation of spot 1 (GSTO1) [2] |
| --- | --- | --- | --- | --- | --- | --- |
| COc1cc(C(C)OC(=O)Oc2ccc([N+](=O)[O-])cc2)c([N+](=O)[O-])cc1OCCNC(=O)C(CS(=O)(=O)[O-])NC1=C(/C=C2/N(C)c3ccccc3C2(C)C)C(=O)/C1=C\C1=[N+](C)c2ccccc2C1(C)C (centres unmarked) [Compound 230] | 3.3 | 79400 1·cm^−1·mol^−1 | 646 | 661 |  |  |
| CN1/C(=C/C2=C([O-])C(=C/C3=[N+](C)c4ccccc4C3(C)C)/C2=O)C(C)(C)c2ccccc21 [Compound 220] |  | 280000 1·cm^−1·mol^−1 | 629 | 640 |  |  |
| CC/C=C\C/C=C\C/C=C\C/C=C\C/C=C\C/C=C\CCC(=O)O [DHA, Docosahexaenoic acid] |  |  |  |  | 1.7 | 2.5 |

More lines, main results first:

| QE (QY) [1] [%] | ε [1] | λ(abs) [1] [nm] | λ(ems) [1] [nm] | Compound | down-regulation of spot 2 (GSTO1) [2] | up-regulation of spot 1 (GSTO1) [2] |
| --- | --- | --- | --- | --- | --- | --- |
| 2.9 | 101400 1·cm^−1·mol^−1 | 644 | 657 | COc1cc(C(C)O)c([N+](=O)[O-])cc1OCCN(C)CCNC(=O)C(CS(=O)(=O)[O-])NC1=C(/C=C2/N(C)c3ccccc3C2(C)C)C(=O)/C1=C\C1=[N+](C)c2ccccc2C1(C)C (centres unmarked) [Compound 227] |  |  |
| 2.9 | 127300 1·cm^−1·mol^−1 | 644 | 657 | CN(CCCCCC(=O)O)CCNC(=O)C(CS(=O)(=O)[O-])NC1=C(/C=C2/N(C)c3ccccc3C2(C)C)C(=O)/C1=C\C1=[N+](C)c2ccccc2C1(C)C (centres unmarked) [Compound 222] |  |  |
